Series [1] has as its system Lgr5+ cells (cochlear stem cells). The series is described as follows: Lgr5+ assay: expansion of Lgr5-positive cochlear cells in 3D culture. It is filed as cell-based, mouse. The settings on record: 10 days culture with EGF, bFGF, IGF1, approximate values; for Potency (Lgr5+ activity): effective concentration for Lgr5+ expansion. The source says:
“Stem Cell Proliferation Assay” as used herein is an assay to determine the capacity for agent(s) to induce the creation of stem cells from a starting cell population. In an exemplary Stem Cell Proliferation Assay, the number of cells for an initial cell population is harvested from a Lgr5-GFP mouse such as a B6.129P2-Lgr5tm1(cre/ERT2)Cle/J mouse (also known as Lgr5-EGFP-IRES-creERT2 or Lgr5-GFP mouse, Jackson Lab Stock No: 008875) between the age of 3 to 7 days, by isolating the organ of Corti sensory epithelium and dissociating the epithelium into single cells. Approximately 5000 cells are entrapped in 40 μl of culture substrate (for example, Matrigel (Corning, Growth Factor Reduced)) and placed at the center of wells in a 24-well plate with 500 μl of an appropriate culture media, growth factors and agent being tested. Appropriate culture media and growth factors include Advanced DMEM/F12 with media supplements (1×N2, 1×B27, 2 mM Glutamax, 10 mM HEPES, 1 mM N-acetylcysteine, and 100 U/ml penicillin/100 μg/ml streptomycin) and growth factors (50 ng/ml EGF, 50 ng/ml bFGF, and 50 ng/ml IGF-1) as well as the agent(s) being assessed are added into each well. Cells are cultured for 10 days in a standard cell culture incubator at 37° C. and 5% CO2, with media change every 2 days. The number of Lgr5^+ cells is quantified by counting the number of cells identified as Lgr5+ in an in vitro Lgr5 activity assay (i.e., an assay mearing in vitro Lgr5 activity). The fraction of cells that are Lgr5^+ is quantified by dividing the number of cells identified as Lgr5^+ in a cell population by the total number of cells present in the cell population. The average Lgr5^+ activity of a population is quantified by measuring the average mRNA expression level of Lgr5 of the population normalized using suitable and unregulated references or housekeeping genes (e.g., Hprt). The number of hair cells in a population may be measured by staining with hair cell marker (e.g., MyosinVIIa), or using an endogenous reporter of hair cell genes (e.g., Pou4f3-GFP, Atoh1-nGFP) and analyzing using flow cytometry. The fraction of cells that are hair cells is quantified by dividing the number of cells identified as hair cells in a cell population by the total number of cells present in the cell population. Lgr5 activity can be measured by qPCR.
The compounds of the present disclosure were used in Lgr5-EGFP-IRES-Cre-ER mice (Barker et al., 2007) to analyze the effects of small molecules on cochlear stem cell expansion.
Isolation of stem cells from the inner ear: All animal studies were conducted under an approved institutional protocol according to National Institutes of Health guidelines. For experiments with neonatal mice (postnatal days 1-3), the cochleae were dissected in Hank's Balanced Salt Solution (HBSS) and the organs of Corti were separated from the stria vascularis and the modiolus. The organs of Corti were then treated with Cell Recovery Solution (Corning) for 1 hour to separate cochlear epithelium from the underlying mesenchyme. Epithelia were then collected and treated with TrypLE (Life Technologies) for 15-20 minutes at 37° C. Single cells obtained by mechanical trituration were filtered (40 μm) and suspended in Matrigel® (Corning) for 3D culture.
Cells were cultured in a 1:1 mixture of DMEM and F12, supplemented with Glutamax (GIBCO), N2, B27 (Invitrogen), EGF (50 ng/ml; Chemicon), bFGF (50 ng/ml; Chemicon), IGF1 (50 ng/ml; Chemicon) and the composition provided herein. Medium was changed every other day.
Lgr5-positive cells were quantified after 10 days (D10) in culture in multiple conditions. Cell colonies were dissociated into single cells using TrypLE (Gibco). The cells were then stained with propidium iodide (P1) and were analyzed using a flow cytometer for Lgr5-GFP expression. The number of GFP-positive cells and the percentage of GFP-positive cells were quantified. […]

The nature of series [2]: Thermodynamic aqueous solubility at pH 7.4. It is filed as physicochemical. The note with it: aqueous buffer, thermodynamic from solid, phosphate buffer pH 7.4, 25° C., approximate values, read-out: Concentration (thermodynamic aqueous solubility). On the procedure:
The aqueous thermodynamic solubilities of the compounds of the present disclosure were measured at pH 7.4.
Determining suitability for use of a compound, e.g., as a therapeutic agent can include determining the thermodynamic solubility of the compound. An example of this determination follows: Accurately weigh about 1 mg of the powder of each compound into a glass insert vial and phosphate buffer into each vial of a capless Solubility Sample plate with the volume of 1 mL per mg. Next, add one stir stick to each vial and seal with a molded PTDE/SIL 96-Well Plate Cover. Transfer the Solubility Sample plate to an Eppendorf Thermomixer Comfort plate shaker and shake the plate at 25° C. at 1,100 rpm for 24 hours. At the end of the incubation, open the cover and remove the stir sticks using a big magnet and transfer the samples from the Solubility Sample plate into the filter plate. Using the vacuum manifold, all the samples were filtered. An aliquot of 100 μL was transferred from filtrate to a new 96-well plate by addition of 900 μL of a mixture of H2O and acetonitrile containing an internal standard (1:1) (10 fold) and 10 μL of the diluted solution was pipetted into a new 96-well plate by addition of 990 μL of a mixture of H2O and acetonitrile containing internal standard (1:1) (1,000 fold). The dilution factor may be changed according to the solubility value and the LC/MS signal response.
To prepare standards for the assay, accurately weigh about 1 mg of the powder of each compound into a glass insert vial, add DMSO into each vial of the Standard Plate with the volume of 1 mL per mg to obtain the 1 mg/mL STD sample. Aliquots of 10 μL were taken from 1 mg/mL STD sample to a new 96-well plate followed by addition of 990 μL of a mixture of H2O and acetonitrile containing internal standard (1:1) to obtain 10 μg/mL STD and then 10 μL aliquots were taken from 10 μg/mL sample to a new 96-well plate followed by addition of 990 μL of a mixture of H2O and acetonitrile containing internal standard (1:1) to obtain 0.1 μg/mL STD. The concentration of the standard sample may be changed according to the LC/MS signal response.
The samples were analyzed and quantified against the standard of known concentration using LC/MS/MS. The solubility of the test compound was calculated as follows: [Sample]=Area Ratio sample×DF sample×[STD]/Area Ratio STD DF means the dilution factor. Any value of the compounds that is not within the specified limits was rejected and the experiment was repeated.

Each structure is given as a SMILES string. Values after ≈ are worked out from the molar mass of the structure shown.

As to `CCn1cc(C(=O)O)c(=O)c2c(N)c(F)c(Nc3ccccc3)cc21` [Compound I-16], in series [1], the “% of Lgr5+ Positive Cells” value is on record as 22% and the “Potency (Lgr5+ activity)” value turned out to be 1100 nM. Also, the solubility thermodynamic at 24 h in series [2] turned out to be 1.1 µM (≈ 0.375 µg/mL).
Regarding `CCn1cc(C(=O)O)c(=O)c2c(N)c(F)c(N[C@H]3C[C@@H]3c3ccccc3)cc21` [Compound I-22], in series [1], the “% of Lgr5+ Positive Cells” value worked out at 16% and the “Potency (Lgr5+ activity)” value is 1100 nM.
On to `CCn1cc(C(=O)O)c(=O)c2c(N)c(F)c(N[C@@H]3CC[C@H]3c3ccccc3)cc21` (relative stereo) [Compound I-13], for which the solubility thermodynamic at 24 h in series [2] was under 1.2 µM.
`CC(C)n1cc(C(=O)O)c(=O)c2c(N)c(F)c(N[C@]3(C)C[C@@H](N[C@@H]4C[C@H]4c4ccccc4)C3)cc21` (relative stereo) [Compound I-93]: in series [1], the “% of Lgr5+ Positive Cells” value is 8% and the “Potency (Lgr5+ activity)” value was over 30000 nM.
Regarding `CCn1cc(C(=O)O)c(=O)c2c(N)c(F)c(NCCCc3ccccc3)cc21` [Compound I-19], in series [1], the “% of Lgr5+ Positive Cells” value worked out at 17% and the “Potency (Lgr5+ activity)” value was found to be 370 nM. Further, the solubility thermodynamic at 24 h in series [2] is under 0.03 µM.
The matching figures for `CCn1cc(C(=O)O)c(=O)c2c(N)c(F)c(NC3CCC3)cc21` [Compound I-12]: 25%, 1100 nM and 2.7 µM (≈ 0.862 µg/mL).
For `CCn1cc(C#N)c(=O)c2c(N)c(F)c(N[C@@H]3C[C@H]3c3ccccc3)cc21` (relative stereo) [Compound I-38] the same measures were 7.5%, 123 nM and under 0.01 µM.
For `CCn1cc(C(N)=O)c(=O)c2c(N)c(F)c(NCCN[C@H]3C[C@@H]3c3ccccc3)cc21` (relative stereo) [Compound I-83] the same measures were 12%, 1100 nM and 9.6 µM (≈ 4.07 µg/mL).
Consider `CCn1cc(C(=O)O)c(=O)c2c(N)c(F)c(NC3CN(c4ccccc4)C3)cc21` [Compound I-69], for which, in series [1], the “% of Lgr5+ Positive Cells” value worked out at 25% and the “Potency (Lgr5+ activity)” value is 1100 nM. Besides, the solubility thermodynamic at 24 h in series [2] is under 0.03 µM.
For the compound `CCn1cc(C#N)c(=O)c2c(N)c(F)c(NCCc3ccccc3)cc21` [Compound I-67], in series [2], the solubility thermodynamic at 24 h amounted to 0.23 µM (≈ 0.0806 µg/mL).
For the compound `CCn1cc(C(=O)O)c(=O)c2c(N)c(F)c(NC3CCOCC3)cc21` [Compound I-8], in series [1], the “% of Lgr5+ Positive Cells” value stood at 21% and the “Potency (Lgr5+ activity)” value amounted to 3300 nM. Besides, in series [2], the solubility thermodynamic at 24 h is 35 µM (≈ 12.2 µg/mL).
Take `CCCn1cc(C(=O)O)c(=O)c2c(N)c(F)c(NCCN[C@@H]3C[C@H]3c3ccccc3)cc21` (relative stereo) [Compound I-87]: in series [1], the “% of Lgr5+ Positive Cells” value amounted to 52% and the “Potency (Lgr5+ activity)” value came to 3300 nM. Further, in series [2], the solubility thermodynamic at 24 h is 8 µM (≈ 3.51 µg/mL).
On to `CCn1cc(C(=O)O)c(=O)c2c(N)cc(N[C@@H]3C[C@H]3c3ccccc3)cc21` (relative stereo) [Compound I-59], for which the solubility thermodynamic at 24 h in series [2] was under 0.06 µM.
Still for that read-out and setting: in the case of `CCn1cc(C(N)=O)c(=O)c2c(N)c(F)c(NCCc3ccccc3)cc21` [Compound I-66] it was 0.06 µM (≈ 0.0221 µg/mL).
As to `CCn1cc(C(=O)O)c(=O)c2c(N)c(F)c(N[C@@H]3C[C@@H]3c3ccccc3)cc21` (relative stereo) [Compound I-23], in series [1], the “% of Lgr5+ Positive Cells” value is given as 14% and the “Potency (Lgr5+ activity)” value came to 2200 nM. The solubility thermodynamic at 24 h in series [2] was under 0.03 µM.
Turning to `Nc1c(F)c(N[C@@H]2C[C@H]2c2ccccc2)c(F)c2c1c(=O)c(C(=O)O)cn2C1CC1` (relative stereo) [Compound I-32], the solubility thermodynamic at 24 h in series [2] is under 0.08 µM.
Same read-out and setting: with `CCn1cc(C(=O)O)c(=O)c2c(N)c(F)c(Nc3ccc([C@@H]4C[C@H]4N)cc3)cc21` (relative stereo) [Compound I-62] the figure was 54 µM (≈ 21.4 µg/mL); with `CCn1cc(-c2nnn[nH]2)c(=O)c2c(N)c(F)c(NCCc3ccccc3)cc21` [Compound I-68], 0.03 µM (≈ 0.0118 µg/mL).
Consider `CCn1cc(C(=O)O)c(=O)c2c(N)c(F)c(N[C@@H]3C[C@H]3c3ccccc3)cc21` [Compound I-21], for which, in series [1], the “% of Lgr5+ Positive Cells” value was 21% and the “Potency (Lgr5+ activity)” value was 3300 nM.
On to `CCn1cc(C(=O)O)c(=O)c2cc(F)c(NC3CCCCC3)cc21` [Compound I-1], for which, in series [1], the “% of Lgr5+ Positive Cells” value was under 5% and the “Potency (Lgr5+ activity)” value is over 10000 nM.
For `CC(C)n1cc(C(=O)O)c(=O)c2c(N)c(F)c(NCCN[C@@H]3C[C@H]3c3ccccc3)cc21` (relative stereo) [Compound I-88] the same measures were 32% and 1100 nM.
The matching figures for `CCn1cc(C(=O)O)c(=O)c2c(N)c(F)c(NCCN[C@@H]3C[C@@]34CCc3ccccc34)cc21` (relative stereo) [Compound I-82]: 48% and 10000 nM.
As for `CCn1cc(C(=O)O)c(=O)c2c(N)cc(NCCc3ccccc3)c(F)c21` [Compound I-65], in series [2], the solubility thermodynamic at 24 h is 0.11 µM (≈ 0.0406 µg/mL).
On to `CCn1cc(C(=O)O)c(=O)c2c(N)c(F)c(NC3CCc4ccccc43)cc21` (centres unmarked) [Compound I-10], for which, in series [1], the “% of Lgr5+ Positive Cells” value was 1% and the “Potency (Lgr5+ activity)” value was over 10000 nM.
For `Nc1c(F)c(NCCN[C@@H]2C[C@H]2c2ccccc2)cc2c1c(=O)c(C(=O)O)cn2C1CC1` (relative stereo) [Compound I-89] the same measures were 35% and 3300 nM.
Regarding `CCn1cc(C(=O)O)c(=O)c2c(N)c(F)c(N3CCC(N[C@@H]4C[C@H]4c4ccccc4)CC3)cc21` (relative stereo) [Compound I-26], in series [1], the “% of Lgr5+ Positive Cells” value is given as under 5% and the “Potency (Lgr5+ activity)” value is over 10000 nM.

Source of the values: patent publication US20230058189A1, “QUINOLIN-4-ONE AND 4(1H)-CINNOLINONE COMPOUNDS AND METHODS OF USING SAME” (Frequency Therapeutics, Inc., priority 2019, published 2023).
